Laboratory results reported in patent US10597388B2, “Pyridazinone herbicides” (FMC CORPORATION, priority 2014, dated 2020).

How the values were obtained:
Test in all cases: Test C greenhouse herbicide test, pre- and postemergence
Format in all cases: in vivo
soybean (Glycine max) = test system: soybean (Glycine max)
Outline: (§1)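 Visual 0–100 injury score (100 = complete control) taken against untreated controls after 13–15 d in greenhouse. Test chemicals, formulated in solvent plus surfactant, applied preemergence to seeds in loam–sand soil or postemergence to 1- to 4-leaf plants (2–18 cm).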

[1] = test system: wheat (winter wheat, Triticum aestivum)
Outline: as §1

[2] = test system: blackgrass (Alopecurus myosuroides)
Outline: as §1

[3] = test system: oilseed rape (Brassica napus)
Outline: as §1

corn (Zea mays) = test system: corn (Zea mays)
Outline: as §1

[4] = test system: ragweed (common ragweed, Ambrosia elatior)
Outline: as §1

[5] = test system: crabgrass, large (large crabgrass, Digitaria sanguinalis)
Outline: as §1

[6] = test system: foxtail, giant (giant foxtail, Setaria faberii)
Outline: as §1

[7] = test system: lambsquarters (Chenopodium album)
Outline: as §1

[8] = test system: barnyardgrass (Echinochloa crus-galli)
Outline: as §1

[9] = test system: nutsedge, yellow (yellow nutsedge, Cyperus esculentus)
Outline: as §1

[10] = test system: pigweed (Amaranthus retroflexus)
Outline: as §1

[11] = test system: ryegrass, Italian (Italian ryegrass, Lolium multiflorum)
Outline: as §1

[12] = test system: velvetleaf (Abutilon theophrasti)
Outline: as §1

[13] = test system: galium (catchweed bedstraw, Galium aparine)
Outline: as §1

[14] = Postemergence, 31 g ai/ha, 0 to 100 scale (0 no effect, 100 complete control)
[15] = Postemergence, 125 g ai/ha, scale 0 to 100, 0 is no effect, 100 is complete control
[16] = Postemergence, 250 g ai/ha, scale 0 to 100, 0 no effect, 100 complete control, 13 to 15 d
[17] = Preemergence, 31 g ai/ha, scale 0 to 100, 0 is no effect, 100 is complete control
[18] = Preemergence, 62 g ai/ha, scale 0 to 100, 0 is no effect, 100 is complete control
[19] = Preemergence, 125 g ai/ha, scale 0 to 100, 0 is no effect, 100 is complete control
[20] = Preemergence, 250 g ai/ha, scale 0 to 100, 0 no effect, 100 complete control
[21] = postemergence, 62 g ai/ha, scale 0 to 100, 0 no effect, 100 complete control

CCc1sc2c(C)cc(C)cc2c1-c1c(O)c(C)nn(C)c1=O [Compound 57] was tested, and the “Soybean plant response rating” value (soybean (Glycine max); [14]) was 0, the “Plant response rating, Soybean” value (soybean (Glycine max); [15]) was 0 and the “Plant response rating, Soybean” value (soybean (Glycine max); [16]) was 5. The “Plant response rating, Soybean” value (soybean (Glycine max); [17]) was 0, the “Plant response rating, Soybean” value (soybean (Glycine max); [18]) was 0 and the “Plant response rating, Soybean” value (soybean (Glycine max); [19]) was 0. For the same compound, the “Soybean plant response rating” value (soybean (Glycine max); [20]) was 0, the “Soybean plant response rating” value (soybean (Glycine max); [21]) was 0 and the “Wheat plant response rating” value [1, 14] was 0. For the same compound, the “Plant response rating, Wheat” value [1, 15] was 0, the “Plant response rating, Wheat” value [1, 16] was 5 and the “Plant response rating, Wheat” value [1, 17] was 0. For the same compound, the “Plant response rating, Wheat” value [1, 18] was 0, the “Plant response rating, Wheat” value [1, 19] was 0 and the “Wheat plant response rating” value [1, 20] was 5. The “Wheat plant response rating” value [1, 21] was 0, the “Blackgrass plant response rating” value [2, 14] was 5 and the “Plant response rating, Blackgrass” value [2, 15] was 5. For the same compound, the “Plant response rating, Blackgrass” value [2, 16] was 25, the “Plant response rating, Blackgrass” value [2, 17] was 30 and the “Plant response rating, Blackgrass” value [2, 18] was 60. For the same compound, the “Plant response rating, Blackgrass” value [2, 19] was 70, the “Blackgrass plant response rating” value [2, 20] was 80 and the “Blackgrass plant response rating” value [2, 21] was 5. The “Oilseed Rape plant response rating” value [3, 14] was 0, the “Plant response rating, Oilseed Rape” value [3, 15] was 0 and the “Plant response rating, Oilseed Rape” value [3, 16] was 5. For the same compound, the “Plant response rating, Oilseed Rape” value [3, 17] was 0, the “Plant response rating, Oilseed Rape” value [3, 18] was 0 and the “Plant response rating, Oilseed Rape” value [3, 19] was 30. For the same compound, the “Oilseed Rape plant response rating” value [3, 20] was 60, the “Oilseed Rape plant response rating” value [3, 21] was 0 and the “Corn plant response rating” value (corn (Zea mays); [14]) was 0. For the same compound, the “Plant response rating, Corn” value (corn (Zea mays); [15]) was 5, the “Plant response rating, Corn” value (corn (Zea mays); [16]) was 10 and the “Plant response rating, Corn” value (corn (Zea mays); [17]) was 0. For the same compound, the “Plant response rating, Corn” value (corn (Zea mays); [19]) was 0, the “Corn plant response rating” value (corn (Zea mays); [20]) was 35 and the “Corn plant response rating” value (corn (Zea mays); [21]) was 5. The “Ragweed plant response rating” value [4, 14] was 60, the “Plant response rating, Ragweed” value [4, 15] was 85 and the “Plant response rating, Ragweed” value [4, 16] was 95. For the same compound, the “Plant response rating, Ragweed” value [4, 17] was 70, the “Plant response rating, Ragweed” value [4, 18] was 95 and the “Plant response rating, Ragweed” value [4, 19] was 100. The “Ragweed plant response rating” value [4, 20] was 100, the “Ragweed plant response rating” value [4, 21] was 90 and the “Crabgrass, Large plant response rating” value [5, 14] was 10. The “Plant response rating, Crabgrass, Large” value [5, 15] was 30, the “Plant response rating, Crabgrass, Large” value [5, 16] was 35 and the “Plant response rating, Crabgrass, Large” value [5, 17] was 0. The “Plant response rating, Crabgrass, Large” value [5, 18] was 35, the “Plant response rating, Crabgrass, Large” value [5, 19] was 98 and the “Crabgrass, Large plant response rating” value [5, 20] was 100. For the same compound, the “Crabgrass, Large plant response rating” value [5, 21] was 20, the “Foxtail, Giant plant response rating” value [6, 14] was 70 and the “Plant response rating, Foxtail, Giant” value [6, 15] was 85. The “Plant response rating, Foxtail, Giant” value [6, 16] was 95, the “Plant response rating, Foxtail, Giant” value [6, 17] was 45 and the “Plant response rating, Foxtail, Giant” value [6, 18] was 80. For the same compound, the “Plant response rating, Foxtail, Giant” value [6, 19] was 90, the “Foxtail, Giant plant response rating” value [6, 20] was 100 and the “Foxtail, Giant plant response rating” value [6, 21] was 70. The “Lambsquarters plant response rating” value [7, 14] was 70, the “Plant response rating, Lambsquarters” value [7, 15] was 95 and the “Plant response rating, Lambsquarters” value [7, 16] was 90. For the same compound, the “Plant response rating, Lambsquarters” value [7, 17] was 100, the “Plant response rating, Lambsquarters” value [7, 18] was 100 and the “Plant response rating, Lambsquarters” value [7, 19] was 100. The “Lambsquarters plant response rating” value [7, 20] was 100, the “Lambsquarters plant response rating” value [7, 21] was 70 and the “Barnyardgrass plant response rating” value [8, 14] was 90. For the same compound, the “Plant response rating, Barnyardgrass” value [8, 15] was 95, the “Plant response rating, Barnyardgrass” value [8, 16] was 98 and the “Plant response rating, Barnyardgrass” value [8, 17] was 5. The “Plant response rating, Barnyardgrass” value [8, 18] was 90, the “Plant response rating, Barnyardgrass” value [8, 19] was 100 and the “Barnyardgrass plant response rating” value [8, 20] was 100. For the same compound, the “Barnyardgrass plant response rating” value [8, 21] was 95, the “Nutsedge, Yellow plant response rating” value [9, 14] was 90 and the “Plant response rating, Nutsedge, Yellow” value [9, 15] was 90. The “Plant response rating, Nutsedge, Yellow” value [9, 16] was 90, the “Plant response rating, Nutsedge, Yellow” value [9, 17] was 10 and the “Plant response rating, Nutsedge, Yellow” value [9, 18] was 30. The “Plant response rating, Nutsedge, Yellow” value [9, 19] was 90, the “Nutsedge, Yellow plant response rating” value [9, 20] was 95 and the “Nutsedge, Yellow plant response rating” value [9, 21] was 90. For the same compound, the “Pigweed plant response rating” value [10, 14] was 60, the “Plant response rating, Pigweed” value [10, 15] was 85 and the “Plant response rating, Pigweed” value [10, 16] was 100. For the same compound, the “Plant response rating, Pigweed” value [10, 17] was 100, the “Plant response rating, Pigweed” value [10, 18] was 100 and the “Plant response rating, Pigweed” value [10, 19] was 100. The “Pigweed plant response rating” value [10, 20] was 100, the “Pigweed plant response rating” value [10, 21] was 80 and the “Ryegrass, Italian plant response rating” value [11, 14] was 25. For the same compound, the “Plant response rating, Ryegrass, Italian” value [11, 15] was 50, the “Plant response rating, Ryegrass, Italian” value [11, 16] was 60 and the “Plant response rating, Ryegrass, Italian” value [11, 17] was 45. For the same compound, the “Plant response rating, Ryegrass, Italian” value [11, 18] was 65, the “Plant response rating, Ryegrass, Italian” value [11, 19] was 70 and the “Ryegrass, Italian plant response rating” value [11, 20] was 85. The “Ryegrass, Italian plant response rating” value [11, 21] was 30, the “Velvetleaf plant response rating” value [12, 14] was 90 and the “Plant response rating, Velvetleaf” value [12, 15] was 100. The “Plant response rating, Velvetleaf” value [12, 16] was 100, the “Plant response rating, Velvetleaf” value [12, 17] was 50 and the “Plant response rating, Velvetleaf” value [12, 18] was 80. The “Plant response rating, Velvetleaf” value [12, 19] was 95, the “Velvetleaf plant response rating” value [12, 20] was 100 and the “Velvetleaf plant response rating” value [12, 21] was 95. For the same compound, the “Galium plant response rating” value [13, 14] was 95, the “Plant response rating, Galium” value [13, 15] was 95 and the “Plant response rating, Galium” value [13, 16] was 100. The “Plant response rating, Galium” value [13, 17] was 80, the “Plant response rating, Galium” value [13, 18] was 90 and the “Plant response rating, Galium” value [13, 19] was 95. For the same compound, the “Galium plant response rating” value [13, 20] was 98 and the “Galium plant response rating” value [13, 21] was 95.
